The results in this text go back to US10934298B2, “Substituted pyrazolo[1,5-a]pyrimidines for the treatment of medical disorders” (BIAL—BioTech Investments, Inc., priority 2016, dated 2021).

For the test, the target named is T1, glucocerebrosidase (Gcase) (Homo sapiens, UniProt P04062).
T1 construct: micellar solution containing 10 nM GCase and 100 nM saposin C
T1 sequence (P04062 40-536): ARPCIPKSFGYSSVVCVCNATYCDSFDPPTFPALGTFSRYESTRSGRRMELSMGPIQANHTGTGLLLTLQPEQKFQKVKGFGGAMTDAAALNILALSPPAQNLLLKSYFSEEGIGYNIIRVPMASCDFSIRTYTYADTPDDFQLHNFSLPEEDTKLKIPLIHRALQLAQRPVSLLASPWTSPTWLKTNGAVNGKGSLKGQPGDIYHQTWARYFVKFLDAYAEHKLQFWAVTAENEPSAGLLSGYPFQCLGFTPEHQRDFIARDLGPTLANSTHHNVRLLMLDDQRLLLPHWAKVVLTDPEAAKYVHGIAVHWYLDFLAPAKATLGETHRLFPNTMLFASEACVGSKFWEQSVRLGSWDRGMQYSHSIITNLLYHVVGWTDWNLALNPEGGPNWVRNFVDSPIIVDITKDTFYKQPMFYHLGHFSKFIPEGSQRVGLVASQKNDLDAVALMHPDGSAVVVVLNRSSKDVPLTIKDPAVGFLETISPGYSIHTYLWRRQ
Description: Glucocerebrosidase (Gcase) activation assay with 4-methylumbelliferyl-beta-D-glucopyranoside substrate, saposin C and phosphatidylserine/triton micelles, fluorescence readout. In kind it is biochemical. The settings on record: Table 3A. The procedure: The ability of exemplary compounds to activate glucocerebrosidase (Gcase) was measured.
A 484 μL aliquot of a 1.0 mg/mL solution of phosphatidylserine (PS) (Sigma P7769) in chloroform was evaporated under a stream of nitrogen for 1 hour. The lipid film was dissolved over 4 minutes of vigorous vortexing in 40 mL of 176 mM K2HPO4/50 mM citric acid (pH 4.7) containing 7.5 μL of triton X-100, resulting in a mixed micellar preparation with a composition of 0.32 mM triton and 0.37 mol % PS. 4-Methylumbelliferyl-beta-D-glucopyranoside (ACROS-337025000) was dissolved in the micellar solution to a final concentration of 2 mM for use as the reaction substrate.
Test compounds were diluted to the desired concentrations with dimethylsulfoxide (DMSO) from 10 mM stocks, and 0.41 μL of the DMSO compound mixture was added to 100 μL of micellar solution containing 10 nM GCase and 100 nM saposin C (Enzo ALX-201-262-C050). Pre-incubation was allowed to occur for 30 minutes at room temperature, after which the reaction was initiated by combining 25 μL of substrate solution with 25 μL of compound/GCase/saposin mixture. The reaction proceeded for 15 minutes at room temperature and was stopped by adding 150 μL of 1M glycine, pH 12.5. The endpoint of the reaction was monitored by measuring fluorescence intensity (excitation: 365 nm; emission: 440 nm) on a SpectraMax i3 instrument (Molecular Devices). Test compounds were screened at 1.0 and 0.1 μM final concentration, and subsequent 8-point dose response curves were obtained using 3-fold dilutions from a maximum final concentration of 5 μM.

Regarding `Cc1cc(C)n2ncc(C(=O)N[C@@H](C)C3CC3)c2n1` [III-1], the “Percent Gcase Activation, 0.1 μM Test Compound” value is given as “* (less than 10% Gcase activation)” and the “Percent Gcase Activation, 1 μM Test Compound” value is “++ (Gcase activation in the range of 30% up to 60%)”.
In the same order, the values of `Cc1cc(C)n2ncc(C(=O)NC(C)(C)C3CC3)c2n1` [III-2] are “** (Gcase activation in the range of 10% up to 20%)” and “+++ (Gcase activation greater than 60%)”.
For `Cc1cc(C)n2ncc(C(=O)N[C@H](C)C3CCCCC3)c2n1` [III-3], in that order: “*** (greater than 20% Gcase activation)” and “+++ (Gcase activation greater than 60%)”.
In the same order, the values of `Cc1cc(C)n2ncc(C(=O)N[C@@H](C)C3CCCCC3)c2n1` [III-4] are “*** (greater than 20% Gcase activation)” and “+++ (Gcase activation greater than 60%)”.
With `Cc1cc(C)n2ncc(C(=O)NC(CC(C)C)C3CC3)c2n1` (centres unmarked) [III-5], the “Percent Gcase Activation, 0.1 μM Test Compound” value is “*** (greater than 20% Gcase activation)” and the “Percent Gcase Activation, 1 μM Test Compound” value is “+++ (Gcase activation greater than 60%)”.
In the same order, the values of `CNc1cc(C)n2ncc(C(=O)N[C@@H](C)C3CC3)c2n1` [III-6] are “* (less than 10% Gcase activation)” and “++ (Gcase activation in the range of 30% up to 60%)”.
For `Cc1cc(-c2ccc(F)cc2)nc2c(C(=O)N[C@@H](C)C3CC3)cnn12` [III-7], the “Percent Gcase Activation, 0.1 μM Test Compound” value is “** (Gcase activation in the range of 10% up to 20%)” and the “Percent Gcase Activation, 1 μM Test Compound” value is given as “+++ (Gcase activation greater than 60%)”.
For the compound `Cc1cc(-c2ccc(F)cc2)n2ncc(C(=O)N[C@@H](C)C3CC3)c2n1` [III-8], the “Percent Gcase Activation, 0.1 μM Test Compound” value was “* (less than 10% Gcase activation)” and the “Percent Gcase Activation, 1 μM Test Compound” value is reported as “+ (less than 30% Gcase activation)”.
For `Cc1cc(C)n2ncc(C(=O)NC(C3CC3)C(F)(F)F)c2n1` (centres unmarked) [III-9], in that order: “** (Gcase activation in the range of 10% up to 20%)” and “+++ (Gcase activation greater than 60%)”.
For `Cc1cc(C)n2ncc(C(=O)N[C@H](C3CC3)C(F)(F)F)c2n1` [III-10], in that order: “** (Gcase activation in the range of 10% up to 20%)” and “+++ (Gcase activation greater than 60%)”.
In the same order, the values of `Cc1cc(C)n2ncc(C(=O)N[C@@H](C3CC3)C(F)(F)F)c2n1` [III-11] are “** (Gcase activation in the range of 10% up to 20%)” and “+++ (Gcase activation greater than 60%)”.
For `Cc1cc(C)n2ncc(C(=O)NC3(C4CC4)CC3)c2n1` [III-12], the “Percent Gcase Activation, 0.1 μM Test Compound” value is recorded as “* (less than 10% Gcase activation)” and the “Percent Gcase Activation, 1 μM Test Compound” value is on record as “+ (less than 30% Gcase activation)”.
For `Cc1cc(C)n2ncc(C(=O)NC(C)(C)C3CC4(CCC4)C3)c2n1` [III-13], in that order: “*** (greater than 20% Gcase activation)” and “+++ (Gcase activation greater than 60%)”.
Turning to `Cc1cc(Cl)n2ncc(C(=O)NC(C)(C)C3CC3)c2n1` [III-14], the “Percent Gcase Activation, 0.1 μM Test Compound” value is “** (Gcase activation in the range of 10% up to 20%)” and the “Percent Gcase Activation, 1 μM Test Compound” value is given as “++ (Gcase activation in the range of 30% up to 60%)”.
For `Cc1cc(Cl)nc2c(C(=O)NC(C)(C)C3CC3)cnn12` [III-15], in that order: “*** (greater than 20% Gcase activation)” and “+++ (Gcase activation greater than 60%)”.
`Cc1cc(-c2ccccn2)nc2c(C(=O)NC(C)(C)C3CC3)cnn12` [III-16]: the “Percent Gcase Activation, 0.1 μM Test Compound” value is “** (Gcase activation in the range of 10% up to 20%)” and the “Percent Gcase Activation, 1 μM Test Compound” value is given as “+++ (Gcase activation greater than 60%)”.
